What all share (type): biochemical
Assay [1] relates to mtPTP. Kind of assay: Ca2+ overload induced mitochondrial swelling in isolated mouse liver mitochondria. The conditions noted are these: for mtPTP inhibitory activity (in words): SAR discussion of Table 2. As to the method: We next sought to evaluate the effects of TR001-13 on mtPTP activity in vitro. This was performed on isolated mitochondria. In isolated mitochondria induction of mtPTP opening leads to mitochondrial swelling due to the oncotic pressure gradient created by matrix proteins >1.5 kDa that cannot diffuse through the open pore. In in vitro experiments, where isolated mitochondria are routinely suspended in sucrose-based isosmotic solutions, the change in mitochondrial size can be measured spectrometrically by detecting the decrease in light scattering at 540 nm.
(§1) Isolation of mitochondria. C57BL6/N mouse liver mitochondria were prepared from 2 to 6 month old male mice by standard differential centrifugation. Mice fed ad libitum were euthanized with CO2 followed cervical dislocation, their livers were existed and placed in a glass beaker containing ice-cold isolation buffer (IB: 0.25 m sucrose, 10 mm Tris-HCl, 0.1 mm EGTA-Tris, pH 7.4) supplemented with fatty acid free bovine serum albumin. Livers were then cut into small pieces with scissors, rinsed with ice-cold IB, and passed through a pre-chilled Potter homogenizer with Teflon pestle. The homogenate (˜30 mL per liver) was transferred to centrifuge tubes, and unbroken cells and nuclei were removed by centrifugation at 700 g for 10 min at 4° C. The supernatant containing mitochondria and other organelles was transferred to new tubes and centrifuged at 6000 g for 10 min at 4° C. The resulting supernatant was discarded and mitochondrial pellet was carefully suspended in ice-cold IB and spun at 9500 g for 5 min at 4° C. The pellet was suspended in IB to give a protein concentration of ˜60-80 mg/mL and stored on ice. Experiments were started immediately and completed within 5 h. Protein concentration was determined by the Biuret method.
Assessment of mitochondrial swelling. Changes in mitochondrial volume of isolated mouse liver mitochondria were followed in a 96-well clear assay plate at a final volume of 0.2 mL and 0.25 mg/mL mitochondrial protein. Absorbance was read for 30 min at 540 nm on a Tecan Infinite F200 plate reader. Activity of test compounds was addressed as follows: First, 0.1 mL of sucrose assay buffer (SAB: 0.250 m sucrose, 10 mm MOPS-Tris, 0.01 mm EGTA-Tris, 1.0 mm phosphoric acid-Tris, 10 mm glutamate and 5 mm malate, pH 7.4) supplemented with twice the CaCl2 concentration required to induce mitochondrial swelling (which was determined for each preparation of mitochondria, typically 50 μm) was dispensed to the assay plate. A set of wells also contained 2.0 mm EGTA (to prevent mitochondrial swelling). The test wells contained a range of concentrations (in 1:2 serial dilutions) of the compounds of interest or 2% DMSO. Experiments were started by the addition of 0.1 mL of mitochondrial suspension (0.5 mg/mL mitochondria in SAB without respiratory substrates) to the assay plates. EC50s±SE were determined with OriginPro software by applying Hill1 function fitting algorithm on average concentration response data of n=3-41 independent preparations.

In assay [2] the test system is mtPTP. Kind of assay: Ca2+ retention capacity (CRC) of isolated mouse liver mitochondria. As to the method:
CRC determines the Ca^2+ threshold required for mtPTP activation; inhibitors of mtPTP are expected to increase the Ca^2+ threshold required for mtPTP induction. Extramitochondrial Ca^2+ changes are detected using the membrane-impermeant Ca^2+ indicator, Calcium Green-5N.
as §1
Assessment of Ca^2+ retention capacity (CRC). CRC of isolated mouse liver mitochondria was assessed as follows: First, 0.1 mL of SAB were dispensed to a 96-well black assay plate in the presence of 2% DMSO (control wells) or varying concentrations of test compounds, in 1:2 serial dilutions. Then, 0.1 mL of 0.5 mg/mL mitochondria in SAB devoid of respiratory substrates, but supplemented with 1 μm Calcium Green-5N were added to all wells of the assay plate. A train of 10 μm CaCl2 pulses was added at 2 min intervals, and fluorescence intensity (ex/em 485/535 nm) was read on Tecan Infinite F200 plate reader.

Assay [3] deals with inner mitochondrial membrane potential. In words: Rhodamine 123 (Rh123) uptake, mitochondrial membrane potential of isolated mouse liver mitochondria. The source says:
We next evaluated the mitochondrial toxicity of the new triazole analogs by testing their ability to interfere with accumulation of the membrane-permeant cationic fluorescent dye rhodamine 123 (Rh123). The mitochondrial uptake of positively charged Rh123 is driven by the inside negative IMM potential, which is built by the respiratory chain or maintained by ATP hydrolysis if certain conditions are met. […] It should be noted, however, that toxicity for these compounds only occurs at ˜10-1000-fold higher concentrations compared to mtPTP inhibition, providing a good therapeutic window.
Assessment of mitochondrial membrane potential. Mitochondrial membrane potential—to evaluate toxicity—of isolated mouse liver mitochondria was assessed based on fluorescence quenching of the cationic fluorescent dye Rh123 upon its accumulation into mitochondrial matrix due to inside negative membrane potential. Compounds that interfere with the build-up or maintenance of IMM potential would shift Rh123 fluorescence to higher values compared to DMSO treated samples. Uncoupler FCCP was used to account for nonspecific fluorescence. First, 0.1 mL of SAB was dispensed to a 96-well black assay plate. A set of wells also contained 0.8 μm FCCP (to prevent Rh123 uptake). The test wells contained a range of concentrations (in 1:2 serial dilutions) of the compounds of interest or 2% DMSO. Then, 0.1 mL of 0.5 mg/mL mitochondria in SAB devoid of respiratory substrates but supplemented with 0.8 μm Rh123 were added to all wells of the assay plate. Fluorescence intensity (ex/em 485/535 nm) was read on a Tecan Infinite F200 plate reader for 7 min and value at 5 min was considered for analysis. EC50s±SE were determined with OriginPro software by applying Hill1 function fitting algorithm on average concentration response data of n=3 independent preparations.

Setting [4] is: isolated mouse liver mitochondria, average ± SEM, n = 3-41, read-out: Mitochondrial Swelling EC50.
[5] abbreviates: compound treated CRC to DMSO treated CRC0 ratio, 1.25 μM, average ± SEM, n = 3-25.
The mark [6] stands for this setting: interference with Rh123 uptake to mitochondria, average ± SEM, n = 3, read-out: Rh123 uptake EC50.
The mark [7] stands for this setting: Mouse Liver Mitochondria (MLM), comparative examples, read-out: Swelling EC50.
[8] abbreviates: Mouse Liver Mitochondria (MLM), comparative examples.
The mark [9] stands for this setting: Mouse Liver Mitochondria (MLM), comparative examples, read-out: Rh123 EC50.

Read-outs that look alike come from different tables or passages of the source.

What is called EC50 is the concentration that produces a half-maximal response. For `Cc1ccc(Cl)cc1NC(=O)c1cn(-c2cccc(O)c2C)nn1` [TR012, N-(5-chloro-2-methylphenyl)-1-(3-hydroxy-2-methylphenyl)-1H-1,2,3-triazole-4-carboxamide], the “mtPTP inhibitory activity (in words)” value in assay [1] is “inactive”. Besides, the EC50 was 10.6 ± 1.4 µM in assay [1] (setting [4]) and greater than 40 µM in assay [3] (setting [6]). Further, the “CRC/CRC0 at 1.25 μM” value in assay [2] (setting [5]) is reported as 1.4 ± 0.1.
For the molecule `Cc1ccc(Cl)cc1NC(=O)c1cn(-c2cc(O)cc(C(F)(F)F)c2)nn1` [drawing 71], the EC50 in assay [1] (setting [7]) worked out at 0.534 µM; in assay [3] (setting [9]), 6 µM. Moreover, the “CRC/CRC0 at 1.25 μM” value in assay [2] (setting [8]) is 3.
In the same order, the values of `Cc1ccc(-n2cc(C(=O)Nc3cc(Cl)ccc3C)nn2)cc1O` [drawing 67] are greater than 20 µM, greater than 40 µM and 1.4.
Consider `Cc1ccc(Cl)cc1NC(=O)c1cn(-c2ccc(F)c(O)c2F)nn1` [TR005], for which, in assay [1], the “mtPTP inhibitory activity (in words)” value is “decreased activity”. Further, the EC50 was 0.782 ± 0.114 µM in assay [1] (setting [4]) and greater than 40 µM in assay [3] (setting [6]). Moreover, the “CRC/CRC0 at 1.25 μM” value in assay [2] (setting [5]) was found to be 2.6 ± 0.2.
On to `CCOC(=O)Oc1cc(-n2cc(C(=O)Nc3cc(Cl)ccc3C)nn2)ccc1F`, for which the EC50 was 0.581 µM in assay [1] (setting [7]) and greater than 40 µM in assay [3] (setting [9]). The “CRC/CRC0 at 1.25 μM” value in assay [2] (setting [8]) was 1.8.
Taken in the same sequence, the figures for `Cc1ccc(Cl)cc1NC(=O)c1cn(-c2ccc(F)c(O)c2F)nn1` [drawing 58] were 0.782 µM, greater than 40 µM and 2.6.
Consider `Cc1ccc(Cl)cc1NC(=O)c1cn(-c2cc(O)cc(F)c2)nn1` [TR002, N-(5-chloro-2-methylphenyl)-1-(3-fluoro-5-hydroxyphenyl)-1H-1,2,3-triazole-4-carboxamide], for which the “mtPTP inhibitory activity (in words)” value in assay [1] was “most potent analog”. Besides, the results for the EC50 in assay [1] (setting [4]) and in assay [3] (setting [6]) were 0.01 ± 0.002 µM and 14.1 ± 1.2 µM, respectively. Also, the “CRC/CRC0 at 1.25 μM” value in assay [2] (setting [5]) worked out at 12.6 ± 0.6.
Consider `CC(=O)c1ccc(C)c(NC(=O)c2cn(-c3ccc(F)c(O)c3)nn2)c1`, for which the EC50 in assay [1] (setting [7]) was 5.2 µM; in assay [3] (setting [9]) it was greater than 40 µM. Moreover, in assay [2] (setting [8]), the “CRC/CRC0 at 1.25 μM” value is 1.4.
In the same order, the values of `Cc1ccc(Cl)cc1NC(=O)c1cn(-c2ccc(F)c(O)c2)nn1` [drawing 46] are 0.025 µM, greater than 100 µM and 7.4.
Taken in the same sequence, the figures for `Cc1ccc(Cl)cc1NC(=O)c1cn(-c2cccc(O)c2F)nn1` [drawing 51] were 0.152 µM, 29 µM and 7.8.
Taken in the same sequence, the figures for `Cc1ccc(I)cc1NC(=O)c1cn(-c2ccc(F)c(O)c2)nn1` were 0.028 µM, 14.7 µM and 8.3.
As for `Cc1ccc(Cl)cc1NC(=O)c1cn(-c2cccc(O)c2F)nn1` [TR003, N-(5-chloro-2-methylphenyl)-1-(2-fluoro-3-hydroxyphenyl)-1H-1,2,3-triazole-4-carboxamide], the EC50 in assay [1] (setting [4]) came to 0.152 ± 0.036 µM; in assay [3] (setting [6]), 29.3 ± 3.3 µM. In addition, the “fold decrease in activity compared to TR001” value in assay [1] (mitochondrial swelling, vs TR001) is 5 fold. Besides, the “CRC/CRC0 at 1.25 μM” value in assay [2] (setting [5]) worked out at 7.4 ± 0.5.
Take `Cc1ccc(Cl)cc1NC(=O)c1cn(-c2cc(O)cc(F)c2)nn1` [drawing 52]: the figures for the EC50 in assay [1] (setting [7]) and in assay [3] (setting [9]) were 0.01 µM and 14 µM, respectively. The “CRC/CRC0 at 1.25 μM” value in assay [2] (setting [8]) stood at 13.09.
Take `Cc1ccc(Cl)cc1NC(=O)c1cn(-c2cc(O)ccc2F)nn1` [TR004, N-(5-chloro-2-methylphenyl)-1-(2-fluoro-5-hydroxyphenyl)-1H-1,2,3-triazole-4-carboxamide]: the “mtPTP inhibitory activity (in words)” value in assay [1] was “inactive”. In addition, the EC50 is greater than 20 µM in assay [1] (setting [4]) and greater than 40 µM in assay [3] (setting [6]). Further, the “CRC/CRC0 at 1.25 μM” value in assay [2] (setting [5]) is on record as 1.3 ± 0.03.
In the case of `Cc1ccc(Cl)cc1NC(=O)c1cn(-c2ccc(C)c(O)c2Cl)nn1` [drawing 66], the EC50 in assay [1] (setting [7]) is greater than 20 µM; in assay [3] (setting [9]) it was greater than 40 µM. Further, the “CRC/CRC0 at 1.25 μM” value in assay [2] (setting [8]) amounted to 1.
Turning to `Cc1ccc(Cl)cc1NC(=O)c1cc(-c2ccc(F)c(O)c2)on1` [drawing 45], the EC50 in assay [1] (setting [7]) was 0.002 µM; in assay [3] (setting [9]), greater than 100 µM. The “CRC/CRC0 at 1.25 μM” value in assay [2] (setting [8]) was 13.5.
In the case of `Cc1ccc(Cl)cc1NC(=O)c1cn(-c2cccc(O)c2Cl)nn1` [TR007, N-(5-chloro-2-methylphenyl)-1-(2-chloro-3-hydroxyphenyl)-1H-1,2,3-triazole-4-carboxamide], the figures for the EC50 in assay [1] (setting [4]) and in assay [3] (setting [6]) were greater than 20 µM and greater than 40 µM, respectively. Besides, the “CRC/CRC0 at 1.25 μM” value in assay [2] (setting [5]) was 1.2 ± 0.1.
On to `Cc1ccc(Cl)cc1NC(=O)c1cn(-c2ccc(Cl)c(O)c2)nn1` [TR006, N-(5-chloro-2-methylphenyl)-1-(4-chloro-3-hydroxyphenyl)-1H-1,2,3-triazole-4-carboxamide], for which, in assay [1], the “mtPTP inhibitory activity (in words)” value is “decreased activity”. The EC50 in assay [1] (setting [4]) is 0.135 ± 0.015 µM; in assay [3] (setting [6]), greater than 40 µM. Also, in assay [2] (setting [5]), the “CRC/CRC0 at 1.25 μM” value amounted to 3.9 ± 0.3.

These data come from US12398110B2, “Second generation inhibitors of mitochondrial permeability transition pore with improved plasma stability” (Oregon Health & Science University, priority 2019, dated 2025).
